In PubChem BioAssay (NCI) one finds GI50 and TGI data, which are given here for ten compounds.

Structures are written as SMILES.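 Step 1: Grow cells in 96-well plates. Step 2: Expose to compound for 48 hours at 5 concentrations. Step 3: Interpolate endpoints linearly; if unreached, use highest concentration. Here, GI50 denotes the concentration required for 50% inhibition of growth. TGI: concentration producing complete growth inhibition.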

Test systems include BT-549 breast; HCC-2998 colon; HCT-15 colon; K-562 leukemia; MALME-3M melanoma; SK-MEL-2 melanoma; SN12C renal; UACC-257 melanoma; DLD-1 colon; KM20L2 colon.
Assay in all cases: NCI anticancer screen, dose series, 48 h

With `CC1(C)N=C(N)N=C(N)N1c1cccc(OCCOc2cccc([N+](=O)[O-])c2)c1`, the GI50 in the experiment with BT-549 breast is 7.18 µM; in the experiment on HCC-2998 colon, 2.81 µM; with HCT-15 colon, above 100 µM; in the experiment with K-562 leukemia, 2.1 µM; in the experiment on MALME-3M melanoma, 7.54 µM; with SK-MEL-2 melanoma it was 15.2 µM. Besides, the GI50 in the experiment with SN12C renal is 4.04 µM; with UACC-257 melanoma, 4.32 µM. The TGI in the experiment on BT-549 breast, in the experiment with HCC-2998 colon, in the experiment on HCT-15 colon, with K-562 leukemia, with MALME-3M melanoma and in the experiment with SK-MEL-2 melanoma was above 100 µM in each case. In addition, the TGI in the experiment on SN12C renal and with UACC-257 melanoma was above 100 µM each time.

Turning to `O=C(NNc1cnccn1)c1nc2cc(F)ccc2n2cccc12`, the GI50 is 2.24 µM in the experiment with BT-549 breast; 2.88 µM in the experiment on HCC-2998 colon; 0.183 µM with HCT-15 colon; 0.387 µM with K-562 leukemia; 1.06 µM with MALME-3M melanoma; 1.61 µM with SK-MEL-2 melanoma. The GI50 is 0.925 µM in the experiment on SN12C renal and 0.515 µM in the experiment with UACC-257 melanoma. Further, the TGI in the experiment with BT-549 breast is above 62.8 µM; in the experiment with HCC-2998 colon, above 100 µM; in the experiment on HCT-15 colon it was above 100 µM; in the experiment with K-562 leukemia, above 100 µM; in the experiment with MALME-3M melanoma, above 100 µM; in the experiment with SK-MEL-2 melanoma, above 100 µM. The TGI in the experiment with SN12C renal and in the experiment on UACC-257 melanoma was above 100 µM each time.

Regarding `COc1ccc(-c2nn(-c3cccc(Cl)c3)cc2-c2nc(N)[nH]c(=O)c2C#N)cc1`, the GI50 with BT-549 breast was 3.54 µM; in the experiment on HCC-2998 colon, 5.87 µM; in the experiment on HCT-15 colon, 5.07 µM; with K-562 leukemia, 3.45 µM; in the experiment on MALME-3M melanoma it was 5.83 µM; in the experiment with SK-MEL-2 melanoma, 3.94 µM. In addition, the GI50 was 6.41 µM in the experiment with SN12C renal and 5.69 µM in the experiment with UACC-257 melanoma. The TGI was 22.4 µM in the experiment with BT-549 breast; 24.9 µM in the experiment on HCC-2998 colon; above 100 µM in the experiment on HCT-15 colon; above 100 µM with K-562 leukemia; 40.6 µM in the experiment on MALME-3M melanoma; 15.8 µM with SK-MEL-2 melanoma. The TGI in the experiment on SN12C renal is above 100 µM; in the experiment on UACC-257 melanoma, 47.3 µM.

Take `COc1ccc(-c2noc(N)c2-c2cc(OC)c3c(c2)OCO3)cc1`: the GI50 with BT-549 breast is 3.01 µM; in the experiment on HCC-2998 colon it was 3.68 µM; with HCT-15 colon it was 0.616 µM; with K-562 leukemia it was 0.405 µM; with MALME-3M melanoma it was 9.66 µM; in the experiment with SK-MEL-2 melanoma, 1.51 µM. Moreover, the results for the GI50 with SN12C renal and with UACC-257 melanoma were 4.14 µM and 5.87 µM, respectively. Besides, the TGI in the experiment on BT-549 breast is 61.9 µM; in the experiment on HCC-2998 colon it was above 33.9 µM; in the experiment with HCT-15 colon, above 100 µM; with K-562 leukemia, above 100 µM; in the experiment on MALME-3M melanoma, above 100 µM; in the experiment on SK-MEL-2 melanoma, 6.83 µM. Further, the TGI in the experiment on SN12C renal and in the experiment with UACC-257 melanoma was above 100 µM in each case.

As for `c1ccc2c(c1)c1ccccc1c1ccccc21`, the GI50 in the experiment on BT-549 breast, in the experiment with HCC-2998 colon, in the experiment on HCT-15 colon, in the experiment on K-562 leukemia, in the experiment on MALME-3M melanoma and in the experiment on SK-MEL-2 melanoma was above 100 µM each time. Further, the GI50 in the experiment with SN12C renal and in the experiment with UACC-257 melanoma was above 100 µM throughout. The TGI in the experiment on BT-549 breast, in the experiment on HCC-2998 colon, in the experiment with HCT-15 colon, with K-562 leukemia, with MALME-3M melanoma and in the experiment with SK-MEL-2 melanoma was above 100 µM in each case. Besides, the TGI with SN12C renal and in the experiment on UACC-257 melanoma was above 100 µM each time.

Turning to `CCOC(=O)C1=C(Nc2ccc(Br)cc2)OCC1=O`, the TGI in the experiment with DLD-1 colon, with HCC-2998 colon, in the experiment with HCT-15 colon, in the experiment with KM20L2 colon, in the experiment on MALME-3M melanoma and in the experiment on SK-MEL-2 melanoma was above 100 µM each time. The TGI with SN12C renal and with UACC-257 melanoma was above 100 µM each time.

Turning to `Cn1cc(-c2csc(-c3cn(C)c4ccc(F)cc34)n2)c2cnccc21`, the GI50 was 1.71 µM in the experiment on BT-549 breast; 1.86 µM with HCC-2998 colon; 1.68 µM in the experiment with HCT-15 colon; 1.7 µM with K-562 leukemia; 1.97 µM with MALME-3M melanoma; 1.79 µM in the experiment with SK-MEL-2 melanoma. The GI50 in the experiment with SN12C renal is 1.7 µM; in the experiment with UACC-257 melanoma, 1.8 µM. Moreover, the TGI with BT-549 breast was determined as 3.1 µM; in the experiment with HCC-2998 colon, 3.55 µM; in the experiment with HCT-15 colon, 3.27 µM; in the experiment with K-562 leukemia, 3.78 µM; in the experiment with MALME-3M melanoma, 3.57 µM; in the experiment on SK-MEL-2 melanoma, 3.38 µM. Besides, the TGI with SN12C renal was 3.14 µM; with UACC-257 melanoma, 3.26 µM.

With `O=C1C2[C@@H](C(=O)N1c1ccc(Br)cc1)C13C(=CC2([N+](=O)[O-])[C@@H]2C(=O)N(c4ccc(Br)cc4)C(=O)[C@@H]21)c1ccccc1N3c1ccccc1` (some centres undefined), the TGI in the experiment with DLD-1 colon, in the experiment on HCC-2998 colon, in the experiment on HCT-15 colon, in the experiment with K-562 leukemia, in the experiment with MALME-3M melanoma and in the experiment with SK-MEL-2 melanoma was above 100 µM each time. Moreover, the TGI with SN12C renal and in the experiment with UACC-257 melanoma was above 100 µM throughout.

Take `COc1cc(OC)c2sc(-c3ccc(-n4cncc4-c4cc(OC)c(OC)c(OC)c4)cc3)nc2c1`: the GI50 with BT-549 breast was 5.23 µM; with HCC-2998 colon, above 100 µM; with HCT-15 colon, 5.48 µM; with K-562 leukemia it was 3.83 µM; in the experiment on MALME-3M melanoma, 3.73 µM; in the experiment with SK-MEL-2 melanoma, 6.09 µM. The GI50 in the experiment with SN12C renal and in the experiment on UACC-257 melanoma was above 100 µM each time. Besides, the TGI in the experiment on BT-549 breast, in the experiment with HCC-2998 colon, with HCT-15 colon, with K-562 leukemia, in the experiment on MALME-3M melanoma and in the experiment with SK-MEL-2 melanoma was above 100 µM throughout. Also, the TGI in the experiment with SN12C renal and in the experiment with UACC-257 melanoma was above 100 µM throughout.

Turning to `COc1ccc(-c2cc(Nc3ccnc(N4CCOCC4)n3)on2)cc1`, the GI50 in the experiment with BT-549 breast was 0.802 µM; with HCC-2998 colon, 0.461 µM; in the experiment with HCT-15 colon it was 0.0645 µM; with K-562 leukemia it was 0.047 µM; in the experiment on MALME-3M melanoma, 0.289 µM; in the experiment on SK-MEL-2 melanoma it was 0.457 µM. Besides, the GI50 in the experiment on SN12C renal is 0.7 µM; in the experiment with UACC-257 melanoma, 1.48 µM. The TGI was found to be 15.1 µM with BT-549 breast; 10.6 µM in the experiment with HCC-2998 colon; 13 µM with HCT-15 colon; 20.9 µM with K-562 leukemia; 17.4 µM in the experiment on MALME-3M melanoma; 29.5 µM in the experiment with SK-MEL-2 melanoma. Further, the TGI turned out to be 16.6 µM in the experiment with SN12C renal and 11.4 µM in the experiment on UACC-257 melanoma.
